Laboratory results published in patent US20090258052A1, “COMPOUNDS AND METHODS FOR ALTERING BONE GROWTH” (OsteoGeneX Inc., priority 2008, published 2009).

What was measured:
SOST (Sclerostin) = assay: Assay for identification of SOST antagonists promoting bone growth (J Bone Miner Res 2006, 21(11), 1738-1749)
Text: Compounds useful in the methods of the present invention can be identified via a variety of methods known to one of skill in the art. Several exemplary methods for identifying such antagonists are described herein, including cell-based and in vitro techniques (Journal of Bone and Mineral Research 2006, 21(11), 1738-1749). A general method of identifying SOST antagonists involves evaluating the effects of antagonist candidates on bone formation under controlled conditions. Preferably bone formation is determined using micro-CT techniques on live animals. Preferred animals include rodents, more preferred are primates. Femur, tibia and vertebrae bones are particularly useful subjects for such study.
Briefly, the test animal is treated with a predetermined dose of a SOST antagonist candidate. A control animal is treated with a control solution, preferably a non-irritating buffer solution or other carrier.
Once the dosing schedule has been completed, both test and control animals are examined to determine the quantity of bone formation present. This can be accomplished by any suitable method, but is preferably performed on live animals to analyze the bone mineral content. Methods for micro-CT examination of bones in animals are well known in the art. […] Where necessary, levels of bone formation can be calculated by determining the volume of bone formation present in each animal. […]

C57BL/6 mice = assay: Bone growth study in mice, daily i.p. for 30 days; serum osteocalcin by EIA Elisa; type: in vivo; conditions: four month old male C57BL/6 mice
Experimental: Four month old male C57BL/6 mice were treated daily with saline vehicle or sclerostin inhibitors at low, mid, or high doses (via i.p) for 30 days. Study endpoints included a biochemical marker of bone formation, osteocalcin measured by EIA Elisa, and measurement of trabecular bone volume by mico-CT analysis on both the proximal tibia and L5 vertebra.

`O=c1[nH]nc(SCCO)c(=O)[nH]1` [OGX-21] was tested, and the “modulation of the Wnt pathway” value (SOST (Sclerostin); FIG. 1) was “modulating the Wnt pathway”, the “promotion of bone growth” value (SOST (Sclerostin); identification assay) was “promoting bone growth” and the “percent increase in serum osteocalcin over baseline” value (C57BL/6 mice; 10 mg/kg (A)) was 2%. For the same compound, the “percent increase in serum osteocalcin over baseline” value (C57BL/6 mice; 20 mg/kg (B)) was 28% and the “percent increase in serum osteocalcin over baseline” value (C57BL/6 mice; 30 mg/kg (C)) was 15%.
